The text below walks through data of ChEMBL document CHEMBL5108037, “Cyclic Peptide Screening Methods for Preclinical Drug Discovery” (J Med Chem, 2022).

For test [1], the target named is T1, E3 ubiquitin-protein ligase Mdm2 (Homo sapiens, UniProt Q00987). As to the kind of experiment: Inhibition of MDM2 (unknown origin) by Fluorescence polarization assay. (In general: Polarisation of emitted light reports the rotation of a fluorescent probe.)
The target of test [2] is T1, E3 ubiquitin-protein ligase Mdm2. As to the kind of experiment: Binding affinity to MDM2 (unknown origin) by surface plasmon resonance analysis. Background: Surface plasmon resonance follows binding to a sensor surface in real time, without labels.

T1 sequence (Q00987 whole entry): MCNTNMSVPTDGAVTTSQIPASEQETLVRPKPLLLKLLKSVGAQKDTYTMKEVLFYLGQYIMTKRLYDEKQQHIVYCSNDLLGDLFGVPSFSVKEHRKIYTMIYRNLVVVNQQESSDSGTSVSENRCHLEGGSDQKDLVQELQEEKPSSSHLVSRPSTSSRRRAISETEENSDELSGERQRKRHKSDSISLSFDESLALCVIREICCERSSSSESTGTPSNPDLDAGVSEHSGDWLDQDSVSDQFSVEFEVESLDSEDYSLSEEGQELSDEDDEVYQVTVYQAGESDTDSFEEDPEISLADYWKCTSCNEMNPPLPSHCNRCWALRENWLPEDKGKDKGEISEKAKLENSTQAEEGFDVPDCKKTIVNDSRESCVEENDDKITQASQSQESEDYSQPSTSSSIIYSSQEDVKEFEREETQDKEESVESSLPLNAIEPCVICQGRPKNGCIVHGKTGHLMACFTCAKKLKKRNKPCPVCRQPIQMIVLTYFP

What is called IC50 is the concentration needed to halve the response being measured. A higher IC50 goes with a need for much substance. By Kd is commonly meant the equilibrium constant for the complex coming apart. A lower Kd goes with tighter binding. In test [1], `CN1CCC(=O)NCCSCCS(=O)(=O)CCN(Cc2ccc(C#N)cc2)CC(=O)N[C@@H](Cc2cc3ccc(Cl)cc3[nH]2)C1=O` showed an IC50 of 0.6 µM. Moreover, the Kd in test [2] turned out to be 5.5 µM.
